According to ChEMBL document CHEMBL1201862, “PubChem BioAssay data set” (2004):
Calls of active or inactive are those of the source.

How the values were obtained:
[1] = MIN6 cell viability loss – mouse insulinoma, cytotoxicity control, dose response (AID 2122); type: functional;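 further: confirmatory high-throughput counterscreen run to flag cytotoxic compounds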
[2] = target: Multidrug resistance protein CDR2 (Candida albicans (strain SC5314 / ATCC MYA-2876) (Yeast), UniProt P78595); test: blockers of Nile Red efflux by Candida CDR2 – S. cerevisiae AD1-8u, singleplex, Cherry Pick2 set, dose response (AID 623994); type: functional; conditions: read-out: EC50_MICROM
Jurkat = test: blockers of NF-kB activation in T cells – Jurkat, luciferase reporter, luminescence, B- and T-cell, dose response (AID 489004); type: functional, cell-based; conditions: Homo sapiens;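 further: NF-kB luciferase reporter Jurkat cells stimulated with PMA plus ionomycin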
[3] = decrease of insulin promoter-GFP reporter – imaging, high-content screening, mouse beta cells (AID 1628); type: functional; conditions: MIN6
[4] = HEK-293T viability loss, compound-treated – cell-based, uHTS hits, cytotoxicity control for B/T-cell NF-kB inhibitor project, dose response (AID 489019); type: functional;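 further: IC50 reflects cytotoxicity as loss of cell viability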
[5] = Trypanosoma cruzi growth suppression in host cells – NIH3T3 host cells, beta-gal luminescence, confirmation (AID 2044); type: functional, cell-based;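 further: intracellular parasites grown in NIH/3T3 mouse fibroblasts as host cells; luminescent beta-galactosidase reporter signal from transgenic T. cruzi replicating inside host cells; inhibitors lower the luminescence signal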
INS1 = test: INS-1E survival protection against cytokine death – cell-based, luminescence, retest, dose response (AID 449756); type: functional; conditions: Rattus norvegicus;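 further: cell death triggered by IL-1 beta plus TNF-alpha plus IFN-gamma mixture; protective hits raise ATP signal compared with cytokine alone wells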
[6] = NIH3T3 cell viability loss – ATP luminescence, mouse fibroblasts, counter-screen, dose response (AID 2010); type: functional, cell-based;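 further: cells exposed to compound for about 90 hours before reading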
[7] = (§1) Counterscreen for antagonists of the orexin 1 receptor (OX1R; HCRTR1): Fluorescence-based cell-based high throughput dose response assay to identify antagonists of the parental CHO cell line. [Related pubchem assays (depositor defined):AID434989, AID435008, AID463079, AID485270, AID492963, AID492964, AID492965, AID493232, AID504699, AID504701]; type: functional
[8] = Luminescence Cell-Based Dose Response HTS to Identify Activators of Luciferase Translation or Activity in H4 […] Cells. [Related pubchem assays: 1829 (Project Summary), 1814 (Primary HTS)]; type: functional
CHO-K1 = test: as §1, with “Homogeneous time resolved fluorescence (HTRF)-based” for “Fluorescence-based”, “cell-based” for “cell-based high throughput”, “CHO-K1” for “CHO”; type: functional; conditions: Cricetulus griseus;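 further: potency for inhibition of ATP-stimulated IP1 production as antagonists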
H4 = test: Luminescence Cell-Based Dose Response HTS to Identify Activators of 5'UTR Stem-Loop Driven Prion Protein mRNA Translation in H4 Neuroglioblastoma Cells. [Related pubchem assays: 1829 (Project Summary), 1814 (Primary HTS)]; type: functional; conditions: Homo sapiens
Orexin receptor type 2 [9] = target: T1, Orexin receptor type 2 (Homo sapiens, UniProt O43614); test: Counterscreen assay for antagonists of the orexin 1 receptor (OX1R; HCRTR1): Homogeneous Time Resolved Fluorescence (HTRF)-based cell-based dose response assay for antagonists of the orexin 2 receptor (OX2R; HCRTR2), run by assay provider.; type: functional
T1 sequence (O43614 whole entry): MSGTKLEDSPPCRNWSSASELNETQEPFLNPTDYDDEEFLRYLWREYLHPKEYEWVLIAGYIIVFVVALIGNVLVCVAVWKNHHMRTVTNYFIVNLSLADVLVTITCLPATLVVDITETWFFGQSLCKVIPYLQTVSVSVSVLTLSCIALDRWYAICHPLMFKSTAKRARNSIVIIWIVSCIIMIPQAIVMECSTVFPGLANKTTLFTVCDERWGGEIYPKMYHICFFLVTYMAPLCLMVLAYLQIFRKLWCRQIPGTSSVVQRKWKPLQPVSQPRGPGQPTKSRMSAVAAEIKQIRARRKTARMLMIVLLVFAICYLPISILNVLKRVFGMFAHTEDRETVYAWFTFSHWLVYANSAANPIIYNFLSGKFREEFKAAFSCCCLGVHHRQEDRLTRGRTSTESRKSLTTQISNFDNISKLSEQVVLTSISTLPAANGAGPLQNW

Orexin receptor type 2 [10] = target: T1, Orexin receptor type 2; test: Counterscreen assay for antagonists of the orexin 1 receptor (OX1R; HCRTR1): Fluorescence-based cell-based dose response assay for antagonists of the orexin 2 receptor (OX2R; HCRTR2), run by assay provider.; type: functional
[11] = target: T2, Orexin/Hypocretin receptor type 1 (Homo sapiens, UniProt O43613); test: Homogeneous Time Resolved Fluorescence (HTRF)-based cell-based high throughput dose response assay for antagonists of the orexin 1 receptor (OX1R; HCRTR1). [Related pubchem assays (depositor defined):AID434989, AID435008, AID463079, AID485270, AID492963, AID492964, AID492965, AID493232, AID504717, AID504718]; type: functional
T2 sequence (O43613 whole entry): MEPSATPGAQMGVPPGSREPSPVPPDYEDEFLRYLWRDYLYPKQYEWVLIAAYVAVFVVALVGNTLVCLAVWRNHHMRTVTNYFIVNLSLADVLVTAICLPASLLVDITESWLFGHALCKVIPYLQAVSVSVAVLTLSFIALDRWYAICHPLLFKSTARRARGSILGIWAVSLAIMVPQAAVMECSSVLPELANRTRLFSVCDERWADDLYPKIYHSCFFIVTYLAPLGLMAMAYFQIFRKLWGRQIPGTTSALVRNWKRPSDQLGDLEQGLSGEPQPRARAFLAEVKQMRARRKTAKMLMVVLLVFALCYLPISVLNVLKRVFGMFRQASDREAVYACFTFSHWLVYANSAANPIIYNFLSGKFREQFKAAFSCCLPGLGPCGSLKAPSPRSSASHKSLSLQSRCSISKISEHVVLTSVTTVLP

[12] = target: T2, Orexin/Hypocretin receptor type 1; test: Fluorescence-based cell-based high throughput dose response assay for antagonists of the orexin 1 receptor (OX1R; HCRTR1). [Related pubchem assays (depositor defined):AID434989, AID435008, AID463079, AID485270, AID492963, AID492964, AID492965, AID493232, AID504717, AID504718]; type: functional
[13] = Luminescence Cell-Based Dose Confirmation HTS to Identify Activators of 5'UTR Stem-Loop Driven Alpha-Synuclein mRNA Translation in H4 Neuroglioblastoma Cells. [Related pubchem assays: 1829 (Project Summary), 1814 (Primary HTS)]; type: functional
[14] = target: Ras and Rab interactor 1/Tyrosine-protein kinase ABL1 (Homo sapiens, UniProt P00519+Q13671); type: functional;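 further: biochemical TR-FRET dose-response test measuring inhibition of binding between Rin1 and Abl proteins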
[15] = bead-based luminescence quenchers, dual-tagged ARNT – biochemical, AlphaScreen, cherry-pick, artefact control for ARNT-TACC3 interaction inhibitor project, dose response (AID 651705); type: functional;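 further: AlphaScreen bead proximity signal that flags compounds interfering with the detection technology; potency reflects signal decrease which marks the compound as an assay artifact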
Melanocortin receptor 4 = Melanocortin receptor 4 (Homo sapiens, UniProt P32245); type: functional, cell-based;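 further: Cell-based assay with luminescence read-out, confirmatory dose-response testing for agonist activity of biased ligands at MC4R; human U2OS cells with tagged receptor and beta-arrestin; potency of agonists that increase receptor coupling to beta-arrestin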
Melanocortin receptor 4, sequence (P32245 whole entry): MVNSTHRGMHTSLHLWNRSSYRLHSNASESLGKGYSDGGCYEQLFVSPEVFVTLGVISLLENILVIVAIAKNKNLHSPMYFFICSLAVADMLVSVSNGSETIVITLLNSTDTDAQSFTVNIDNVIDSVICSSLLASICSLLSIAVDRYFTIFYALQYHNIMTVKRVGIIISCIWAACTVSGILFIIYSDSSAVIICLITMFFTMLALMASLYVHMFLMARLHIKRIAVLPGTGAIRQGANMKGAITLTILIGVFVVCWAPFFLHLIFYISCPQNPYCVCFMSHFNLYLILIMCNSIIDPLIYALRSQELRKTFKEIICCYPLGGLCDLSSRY

[16] = target: Low molecular weight phosphotyrosine protein phosphatase (Homo sapiens, UniProt P24666); type: functional; conditions: read-out: IC50_Mean;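 further: Dose-response confirmation assay measuring inhibition of LMPTP enzyme activity by fluorescence intensity read-out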
Low molecular weight phosphotyrosine protein phosphatase, sequence (P24666 whole entry, the tested form may be a part): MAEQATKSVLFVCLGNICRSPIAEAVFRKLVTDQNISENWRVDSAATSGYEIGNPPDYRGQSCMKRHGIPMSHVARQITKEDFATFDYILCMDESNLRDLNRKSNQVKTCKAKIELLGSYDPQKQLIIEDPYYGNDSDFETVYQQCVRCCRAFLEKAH

[17] = Fluorescence-based cell-based high throughput dose response assay for inhibitors of the interaction of nucleotide-binding oligomerization domain containing 2 (NOD2) and the receptor-interacting serine-threonine kinase 2 (RIPK2).; type: functional; conditions: Homo sapiens
Beta Lactamase = Beta Lactamase (Pseudomonas aeruginosa, UniProt Q932Y6); test: BLA reporter interference, concentration series – BLA reporter cells, FRET fluorescence, artefact control for NOD2-RIPK2 interaction inhibitor project, dose response (AID 651552); type: functional, cell-based
Beta Lactamase, sequence (Q932Y6 whole entry): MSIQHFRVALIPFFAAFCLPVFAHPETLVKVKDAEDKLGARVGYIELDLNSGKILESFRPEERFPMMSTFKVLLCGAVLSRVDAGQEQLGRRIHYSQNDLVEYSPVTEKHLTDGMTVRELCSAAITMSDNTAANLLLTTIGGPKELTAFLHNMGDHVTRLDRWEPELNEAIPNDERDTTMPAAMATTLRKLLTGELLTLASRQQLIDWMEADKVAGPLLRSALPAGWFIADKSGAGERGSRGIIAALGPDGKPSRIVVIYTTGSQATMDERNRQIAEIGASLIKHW

Aurora kinase B = Aurora kinase B (Homo sapiens, UniProt Q96GD4); type: functional
Aurora kinase B, sequence (Q96GD4 whole entry): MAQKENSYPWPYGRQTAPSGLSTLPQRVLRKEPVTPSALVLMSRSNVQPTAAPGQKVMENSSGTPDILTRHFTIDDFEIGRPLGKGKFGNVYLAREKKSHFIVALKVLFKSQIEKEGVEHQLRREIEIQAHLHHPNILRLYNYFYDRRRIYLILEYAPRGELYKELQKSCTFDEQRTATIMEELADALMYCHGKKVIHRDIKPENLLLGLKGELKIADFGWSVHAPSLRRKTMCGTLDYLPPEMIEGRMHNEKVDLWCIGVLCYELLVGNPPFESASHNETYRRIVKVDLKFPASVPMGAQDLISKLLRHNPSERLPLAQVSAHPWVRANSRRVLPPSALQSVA

[18] = target: Vascular endothelial growth factor receptor 2 (Homo sapiens, UniProt P35968); type: functional
Vascular endothelial growth factor receptor 2, sequence (P35968 whole entry): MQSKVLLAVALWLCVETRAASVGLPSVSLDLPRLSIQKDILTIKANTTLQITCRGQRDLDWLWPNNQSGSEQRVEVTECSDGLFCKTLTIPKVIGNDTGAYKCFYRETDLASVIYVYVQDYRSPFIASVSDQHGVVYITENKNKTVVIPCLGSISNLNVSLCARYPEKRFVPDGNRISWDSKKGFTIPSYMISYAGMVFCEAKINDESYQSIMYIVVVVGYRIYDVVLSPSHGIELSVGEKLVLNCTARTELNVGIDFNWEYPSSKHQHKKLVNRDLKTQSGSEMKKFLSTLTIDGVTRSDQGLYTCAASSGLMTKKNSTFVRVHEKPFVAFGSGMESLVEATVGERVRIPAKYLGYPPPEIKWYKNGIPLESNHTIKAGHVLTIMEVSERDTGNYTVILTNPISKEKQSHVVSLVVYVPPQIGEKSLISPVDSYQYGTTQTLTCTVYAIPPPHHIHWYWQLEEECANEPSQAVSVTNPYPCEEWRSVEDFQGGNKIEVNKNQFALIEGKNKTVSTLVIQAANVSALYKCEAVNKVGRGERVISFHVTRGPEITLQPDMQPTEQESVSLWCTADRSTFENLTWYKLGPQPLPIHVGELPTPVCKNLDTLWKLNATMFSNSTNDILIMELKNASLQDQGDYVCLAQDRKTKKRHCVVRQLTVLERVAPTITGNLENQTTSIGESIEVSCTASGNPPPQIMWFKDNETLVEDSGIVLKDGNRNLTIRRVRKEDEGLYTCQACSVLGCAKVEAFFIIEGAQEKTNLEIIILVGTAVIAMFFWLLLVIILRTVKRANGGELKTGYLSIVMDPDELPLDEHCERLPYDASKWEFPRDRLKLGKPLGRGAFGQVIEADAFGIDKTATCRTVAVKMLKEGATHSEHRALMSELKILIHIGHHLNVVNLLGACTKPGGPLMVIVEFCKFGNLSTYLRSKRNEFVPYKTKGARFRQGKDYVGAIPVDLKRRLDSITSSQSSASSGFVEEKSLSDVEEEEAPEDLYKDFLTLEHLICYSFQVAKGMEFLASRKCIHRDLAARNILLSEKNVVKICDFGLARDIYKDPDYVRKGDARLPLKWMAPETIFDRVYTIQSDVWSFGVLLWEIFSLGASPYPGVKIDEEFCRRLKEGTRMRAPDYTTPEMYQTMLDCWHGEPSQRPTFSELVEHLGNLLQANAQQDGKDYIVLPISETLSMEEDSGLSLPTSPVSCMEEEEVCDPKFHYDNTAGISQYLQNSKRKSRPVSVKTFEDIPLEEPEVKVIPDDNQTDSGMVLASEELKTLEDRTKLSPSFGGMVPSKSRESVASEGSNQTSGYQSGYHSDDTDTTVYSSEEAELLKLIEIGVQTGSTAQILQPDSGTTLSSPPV

Aurora kinase A = Aurora kinase A (Homo sapiens, UniProt O14965); type: functional;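 further: value from the Navigating the Kinome kinase panel profiling, panel entry STK6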
Aurora kinase A, sequence (O14965 whole entry, the tested form may be a part): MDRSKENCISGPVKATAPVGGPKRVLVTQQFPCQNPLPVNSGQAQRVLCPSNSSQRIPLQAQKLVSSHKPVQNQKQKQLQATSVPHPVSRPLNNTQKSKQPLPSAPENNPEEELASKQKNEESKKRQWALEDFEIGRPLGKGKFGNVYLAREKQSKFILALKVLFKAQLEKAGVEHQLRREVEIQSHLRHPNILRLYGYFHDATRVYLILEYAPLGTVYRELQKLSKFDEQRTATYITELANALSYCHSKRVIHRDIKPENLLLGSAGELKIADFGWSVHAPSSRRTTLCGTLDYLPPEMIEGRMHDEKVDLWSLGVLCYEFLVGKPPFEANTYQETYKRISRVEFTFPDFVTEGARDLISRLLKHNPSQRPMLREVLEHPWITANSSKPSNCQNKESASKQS

[19] = target: Hepatocyte nuclear factor 4-alpha (Homo sapiens, UniProt P41235); type: functional, cell-based;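 further: biochemical luminescence-based dose-response counterscreen measuring inhibition of HNF4 dimerization, run alongside a screen for blockers of ABHD5–perilipin-5 interaction; split luciferase complementation of HNF4 fusion proteins in cell lysate measuring dimerization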
Hepatocyte nuclear factor 4-alpha, sequence (P41235 whole entry, the tested form may be a part): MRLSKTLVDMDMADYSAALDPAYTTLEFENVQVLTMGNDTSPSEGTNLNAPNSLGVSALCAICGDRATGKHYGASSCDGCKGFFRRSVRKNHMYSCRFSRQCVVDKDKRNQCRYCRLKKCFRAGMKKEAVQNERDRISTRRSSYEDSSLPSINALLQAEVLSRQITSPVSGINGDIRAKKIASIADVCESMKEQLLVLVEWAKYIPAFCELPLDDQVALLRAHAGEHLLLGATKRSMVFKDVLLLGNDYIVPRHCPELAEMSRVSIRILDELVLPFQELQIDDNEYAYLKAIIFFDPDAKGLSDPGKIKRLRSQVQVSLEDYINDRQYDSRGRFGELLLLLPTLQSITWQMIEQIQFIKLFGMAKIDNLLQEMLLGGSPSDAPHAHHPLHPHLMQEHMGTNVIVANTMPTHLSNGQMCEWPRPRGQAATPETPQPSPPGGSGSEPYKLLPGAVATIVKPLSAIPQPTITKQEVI

[20] = target: T3, ATP-dependent translocase ABCB1 (Homo sapiens, UniProt P08183); test: P-gp JC-1 efflux blockade concentration-response – Jurkat-DNR cells, flow cytometry, set 2, dose response (AID 504569); type: functional; conditions: read-out: EC50_MICROM_;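 further: potency of pump inhibitors that raise cellular JC-1 green fluorescence up to the nicardipine level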
T3 sequence (P08183 whole entry): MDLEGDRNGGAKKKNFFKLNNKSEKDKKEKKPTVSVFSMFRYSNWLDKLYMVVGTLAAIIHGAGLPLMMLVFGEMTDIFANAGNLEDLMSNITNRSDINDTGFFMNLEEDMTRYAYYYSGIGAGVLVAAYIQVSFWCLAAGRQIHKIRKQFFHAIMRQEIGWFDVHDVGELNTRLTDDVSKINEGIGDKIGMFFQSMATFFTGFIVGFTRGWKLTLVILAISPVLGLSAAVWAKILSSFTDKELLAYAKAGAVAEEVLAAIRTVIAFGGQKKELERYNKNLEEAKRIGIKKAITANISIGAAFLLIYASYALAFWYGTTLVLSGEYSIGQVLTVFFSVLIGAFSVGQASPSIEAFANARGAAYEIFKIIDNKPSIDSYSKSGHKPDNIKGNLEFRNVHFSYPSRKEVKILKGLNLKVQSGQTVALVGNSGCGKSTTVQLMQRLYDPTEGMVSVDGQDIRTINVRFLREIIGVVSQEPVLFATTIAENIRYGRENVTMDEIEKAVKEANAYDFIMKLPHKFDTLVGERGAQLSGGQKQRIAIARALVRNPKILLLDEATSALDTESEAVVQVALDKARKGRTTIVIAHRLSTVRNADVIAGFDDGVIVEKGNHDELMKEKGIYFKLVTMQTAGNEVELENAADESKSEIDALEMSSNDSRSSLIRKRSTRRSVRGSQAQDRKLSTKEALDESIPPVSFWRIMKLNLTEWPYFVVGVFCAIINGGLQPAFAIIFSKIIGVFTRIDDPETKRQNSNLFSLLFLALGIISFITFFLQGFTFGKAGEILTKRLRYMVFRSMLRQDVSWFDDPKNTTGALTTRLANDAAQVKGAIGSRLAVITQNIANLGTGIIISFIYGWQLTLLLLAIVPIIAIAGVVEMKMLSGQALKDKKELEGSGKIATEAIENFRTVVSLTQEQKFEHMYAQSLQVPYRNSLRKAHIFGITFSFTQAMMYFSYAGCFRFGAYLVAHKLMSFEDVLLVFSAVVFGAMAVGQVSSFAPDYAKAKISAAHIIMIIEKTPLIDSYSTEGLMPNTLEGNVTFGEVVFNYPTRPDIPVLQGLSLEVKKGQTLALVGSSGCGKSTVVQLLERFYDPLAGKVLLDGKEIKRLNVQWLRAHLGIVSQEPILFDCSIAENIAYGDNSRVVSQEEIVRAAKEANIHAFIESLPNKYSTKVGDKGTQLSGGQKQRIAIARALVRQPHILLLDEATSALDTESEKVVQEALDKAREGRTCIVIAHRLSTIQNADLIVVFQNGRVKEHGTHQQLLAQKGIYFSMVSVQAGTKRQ

[21] = target: T3, ATP-dependent translocase ABCB1; test: inhibition of BCRP-mediated JC-1 efflux – Ig-MXP3 cells, flow cytometry, set 2, dose response (AID 504566); type: functional; conditions: read-out: EC50_MICROM_;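 further: flow cytometry median green fluorescence of retained JC-1 dye; potency of efflux pump inhibition measured as rising substrate retention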
Interleukin-8 [22] = target: T4, Interleukin-8 (Homo sapiens, UniProt P10145); test: Dose Response confirmation of uHTS small molecule hits for cystic fibrosis induced NFkb Inhibitors in a PAF-induced IL8 counterscreen.; type: functional; conditions: read-out: IC50_Mean
T4 sequence (P10145 whole entry): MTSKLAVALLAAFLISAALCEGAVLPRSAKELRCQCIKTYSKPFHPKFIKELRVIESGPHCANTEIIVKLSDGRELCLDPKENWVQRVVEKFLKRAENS

Interleukin-8 [23] = target: T4, Interleukin-8; test: Dose Response confirmation of uHTS small molecule hits for cystic fibrosis induced NFkb Inhibitors in a TNFa-induced IL8 counterscreen.; type: functional; conditions: read-out: IC50_Mean

In the case of `NC1=NC[C@H](Cc2ccc(O)cc2)N1CCCCC1CCCCC1`, the IC50 [1] is reported as 4.52 µM (active), the EC50 [2] is reported as 15.9 µM (active) and the IC50 (Jurkat) is reported as 8.18 µM (active). For the same compound, the IC50 [3] was 3.72 µM (active), the IC50 [4] was 67.6 µM (inactive) and the EC50 [5] was 1.4 µM (active). For the same compound, the AC50 (INS1) was 2.43 µM (active) and the EC50 [6] was > 60 µM (not active).
In the case of `Cc1nc2c(-c3ccc(Cl)cc3)cnn2c2c1CCC2`, the IC50 [7] is reported as > 49.8 µM (inactive), the EC50 [8] is reported as 11.1 µM (active) and the IC50 (CHO-K1) is reported as > 66.3 µM (inactive). For the same compound, the EC50 (H4) was 24.5 µM (active), the IC50 (Orexin receptor type 2 [9]) was > 50 µM (inactive) and the IC50 (Orexin receptor type 2 [10]) was > 88.8 µM (inactive). For the same compound, the IC50 [11] was 4.59 µM (active), the IC50 [12] was 15 µM (inactive) and the EC50 [13] was > 120 µM (not active).
For `COC(=O)c1ccc(COC(=O)C2CCN(S(=O)(=O)c3ccc(C)c(C)c3)CC2)o1`, the IC50 [14] was 12.4 µM (inactive).
In the case of `COCCn1c(-c2ccccc2)cnc1N`, the AC50 [15] is reported as 115 µM (active).
With `CCn1c2ccccc2c2cc(NC(=O)c3cccc(OC)c3)ccc21` the IC50 [7] was > 49.8 µM (inactive), the EC50 [8] was 56.6 µM (active) and the IC50 (CHO-K1) was > 66.2 µM (inactive). The EC50 (H4) was 40.1 µM (active), the IC50 (Orexin receptor type 2 [9]) was > 50 µM (inactive) and the IC50 (Orexin receptor type 2 [10]) was 77.6 µM (inactive). For the same compound, the IC50 [11] was 0.2 µM (active), the IC50 [12] was 0.965 µM (active) and the EC50 [13] was 34.8 µM (active).
For `NC(Cc1ccc(C(F)(F)F)cc1)c1csc(NC(=O)Nc2ccccc2Cl)n1` (stereo not drawn), the EC50 (Melanocortin receptor 4) was > 89.2 µM (inactive).
With `COC(=O)c1ccc(C(=O)OC)c(NC(=O)Cc2cccs2)c1` the IC50 [16] was 27.9 µM (inactive).
For `Cc1c(C(=O)Nc2ccccc2)c2ccc(C(F)(F)F)cc2n1O`, the IC50 [17] was 14.5 µM (inactive) and the IC50 (Beta Lactamase) was 19.4 µM (inactive).
With `Cc1ccc(-c2c(C#N)c(N)nc3cc(C)nn23)cc1` the Ki (Aurora kinase B) was 0.1 µM (active), the Ki [18] was 3.98 µM (active) and the Ki (Aurora kinase A) was 0.501 µM (active).
In the case of `CCCCN1CCN(c2ccc(-c3nc4c(C(N)=O)cccc4[nH]3)cn2)CC1`, the Ki (Aurora kinase B) is reported as 0.0794 µM (active), the Ki [18] is reported as > 5.01 µM (inactive) and the Ki (Aurora kinase A) is reported as 1.26 µM (active).
In the case of `O=C(NC1CCCCC1)C(c1ccc(-c2ccccc2)cc1)n1c(=O)c(-c2ccco2)nc2ccccc21` (stereo not drawn), the IC50 [19] is reported as 2.74 µM (active).
For `O=C(c1ccoc1)N1CCN(c2cc(-c3ccc(F)cc3)nc3cc(-c4cccc(Cl)c4)nn23)CC1`, the EC50 [20] was 5.57 µM (active) and the EC50 [21] was 2.75 µM (active).
With `COc1cccc(-c2ccc3ncnc(NCc4cc(C)cs4)c3c2)c1` the IC50 (Interleukin-8 [22]) was 12.4 µM (inactive) and the IC50 (Interleukin-8 [23]) was 5.37 µM (active).
